# Measurements reported in paper PMC5500904 (Clinical cancer research : an official journal of the …, 2016).
# Like-named read-outs stand apart in the source and are kept apart here.
# How the values were obtained:
# [1] = clinical; settings: human, in vivo; for Cmax: 150 mg; for AUC(0-t): AUC0–last
# [2] = in vivo
# [3] = tested on: patients with advanced solid tumors; settings: in vivo
# [4] = tested on: adrenocortical carcinoma; settings: cited from earlier work
# [5] = tested on: metastatic CRC; settings: combined with everolimus; cited from earlier work
# [6] = target: IGF1R (Homo sapiens, UniProt P08069); assay: Phosphorylation of IGF1R in PBMCs; format: in vivo
# [7] = cited from earlier work
# [8] = tested on: patients with solid tumors; settings: cited from earlier work; for antitumor activity as monotherapy: single agent, solid tumors
# [9] = tested on: advanced NSCLC; settings: cited from earlier work
# Chain of IGF1R (P08069 31-1367): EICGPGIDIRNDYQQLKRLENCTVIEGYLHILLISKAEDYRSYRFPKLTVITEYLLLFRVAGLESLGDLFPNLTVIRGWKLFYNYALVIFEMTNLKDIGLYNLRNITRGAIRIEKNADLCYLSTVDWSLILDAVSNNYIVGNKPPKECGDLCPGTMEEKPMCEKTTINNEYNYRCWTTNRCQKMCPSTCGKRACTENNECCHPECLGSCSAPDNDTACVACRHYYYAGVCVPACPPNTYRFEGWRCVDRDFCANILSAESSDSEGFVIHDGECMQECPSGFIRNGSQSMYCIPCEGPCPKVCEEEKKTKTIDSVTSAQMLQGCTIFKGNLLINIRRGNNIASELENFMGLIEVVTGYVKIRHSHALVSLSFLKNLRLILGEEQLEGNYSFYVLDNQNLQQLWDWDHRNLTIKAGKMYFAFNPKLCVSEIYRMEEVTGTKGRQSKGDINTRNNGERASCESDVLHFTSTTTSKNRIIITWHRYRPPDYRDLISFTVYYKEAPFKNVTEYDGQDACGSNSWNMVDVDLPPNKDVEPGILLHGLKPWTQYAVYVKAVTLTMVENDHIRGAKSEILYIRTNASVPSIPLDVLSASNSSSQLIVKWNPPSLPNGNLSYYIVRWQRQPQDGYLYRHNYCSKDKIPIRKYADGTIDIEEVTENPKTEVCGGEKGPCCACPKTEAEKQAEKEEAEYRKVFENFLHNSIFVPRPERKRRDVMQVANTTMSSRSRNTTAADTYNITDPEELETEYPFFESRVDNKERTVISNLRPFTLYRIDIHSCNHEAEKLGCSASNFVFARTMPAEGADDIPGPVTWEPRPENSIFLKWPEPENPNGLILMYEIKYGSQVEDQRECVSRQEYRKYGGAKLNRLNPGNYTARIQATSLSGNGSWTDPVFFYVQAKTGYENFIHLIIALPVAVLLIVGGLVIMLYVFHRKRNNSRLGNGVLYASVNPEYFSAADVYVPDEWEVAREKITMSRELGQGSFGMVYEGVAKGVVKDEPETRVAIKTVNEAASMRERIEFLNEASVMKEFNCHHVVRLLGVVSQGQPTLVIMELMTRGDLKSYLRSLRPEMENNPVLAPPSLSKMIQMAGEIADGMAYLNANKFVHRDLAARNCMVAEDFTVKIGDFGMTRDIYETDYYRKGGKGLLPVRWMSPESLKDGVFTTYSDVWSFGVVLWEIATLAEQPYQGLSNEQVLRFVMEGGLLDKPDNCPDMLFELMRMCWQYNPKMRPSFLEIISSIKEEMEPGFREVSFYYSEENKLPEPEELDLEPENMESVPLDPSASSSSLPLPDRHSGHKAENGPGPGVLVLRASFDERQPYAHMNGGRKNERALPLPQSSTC
molecule,measurement,setting,value
"C#Cc1cccc(Nc2ncnc3cc(OCCOC)c(OCCOC)cc23)c1 [erlotinib, Erlotinib, reference compound]",Cmax,[1],1280 ng/mL
same,AUC(0-t),[1],21100 ng·h/mL
same,Tmax,[1],4.1 h
same,Tmax,[2]; human,4.1 (1.9–8.4) h
same,Erlotinib-related AE: diarrhea,[3]; human,26%
same,Erlotinib-related AE: drug eruption,[3]; human,74%
same,Erlotinib-related AE: dry skin,[3]; human,26%
same,Erlotinib-related AE: pruritus,[3]; human,26%
same,Erlotinib-related AEs,[3]; human,84 % of patients
same,patients discontinuing for an event related only to the named treatment,[3]; human,3 patients
"C[C@]1(O)C[C@@H](c2nc(-c3ccc4ccc(-c5ccccc5)nc4c3)c3c(N)nccn32)C1 [linsitinib, Linsitinib]",overall survival versus placebo arm,[4],no difference in overall survival
same,patients with durable PR,[4]; linsitinib arm,3 of 90
same,clinical activity,[5],no evidence of clinical activity
same,IGF1R phosphorylation in PBMCs,"[6]; 2 to 24 hours after the first dose, 7 cases, S1–S3",substantially inhibited
same,IGF1R phosphorylation in PBMCs,"[6]; later time points, intermittent S1 schedule",fluctuating receptor inhibition
same,IGF1R phosphorylation in PBMCs,"[6]; later time points, ≥300 mg linsitinib daily in S2 and S3",persisting receptor inhibition
same,concentration at 24 h,[1],≤ 400 ng/mL
same,Cmax,[1],2580 ng/mL
same,AUC(0-t),[1],17900 ng·h/mL
same,Tmax,[1],3 h
same,Cmax and AUC from time zero to infinity versus dose,[2],increased in a dose-proportional manner
same,drug–drug interaction (pharmacokinetic),[2],no significant drug–drug interaction effect
same,plasma level associated with preclinical activity,[7],~ 1 μmol/L
same,QTc prolongation versus peak concentrations of linsitinib,"[8]; another study, 600 mg dose, ref unpublished data",associated with peak concentrations
same,half-life,[8],5 h
same,monotherapy MTD,[8]; continuous once daily dosing,400 mg
same,monotherapy MTD,[8]; intermittent dosing,600 mg
same,antitumor activity as monotherapy,[8],partial responses (PR) in melanoma and adrenocortical carcinoma
same,antitumor activity as monotherapy,[8]; listed as Linsitinib,induced partial responses in adrenocortical carcinoma and melanoma
same,monotherapy RP2D,"[8]; twice daily, continuous",150 mg
same,Linsitinib-related hyperglycemia at grade 2,[3]; human,2
same,Linsitinib-related hyperglycemia at grade 3,[3]; human,3 cases
same,Treatment-related SAEs,[3]; human,10 of 40 (25%) patients (%)
same,linsitinib-related AE: fatigue,[3]; human,12%
same,linsitinib-related AE: nausea,[3]; human,11%
same,linsitinib-related AE: prolonged QTc interval,[3]; human,8%
same,linsitinib-related AE: vomiting,[3]; human,8%
same,patients discontinuing for an event related only to the named treatment,[3]; human,1 patients
same,thrombocytopenia and neutropenia,[3],not observed
"R1507: IGF1R antibody, evaluated with erlotinib in NSCLC",12-week progression-free survival rate,"[9]; R1507 with erlotinib, patients with KRAS-mutant tumors",36%
same,progression-free or overall survival versus erlotinib alone,"[9]; R1507 with erlotinib, unselected patients",no progression-free survival or overall survival advantage
same,tolerability,[9]; in vivo,tolerable
